The nature of data set [1]: Longitudinal (r1) and transversal relaxivity measurement of gadolinium materials, 4.7T MRI. The class given is physicochemical. The note with it: per gadolinium concentration 0-1 mM. From the text:
Gd contrast agents in clinical use can enhance the signal intensity of the lesion area during T1-weighted magnetic resonance imaging, thus showing a bright area. Since human naked eye is more sensitive to bright matters, these contrast agents can better meet the needs of human naked eye. But Gd contrast agents in clinical use have no targeting feature and have a low relaxation rate, thus failing to meet the needs for early diagnosis of diseases such as tumors. In the present invention, a tumor-targeted ferritin shell is used, and in the cavity thereof a gadolinium-iron nano-material is formed by biomimetic mineralization. By using purified human H-subunit ferritin as a template, a ferrous salt, a gadolinium salt and oxidant hydrogen peroxide are added into a solution of recombinant human ferritin, controlling the pH at 8.5 and the temperature at 65° C. […] The numbers of iron atoms and gadolinium atoms are measured through inductively coupled plasma mass spectrometry. The longitudinal relaxivity (r1) and transversal relaxivity (r2) of the material are measured using a 4.7T magnetic resonance imaging system. […]

In the next data set the test system is U87MG human glioma. The experiment in a line: 4.7T MRI of in-situ glioma. The class given is in vivo, nude mouse. The note with it: 0.1 mmol/kg tail vein, scanned 2 hours, glioma about 1-2 mm. On the procedure:
10^6 U87MG human glioma cells (purchased from ATCC, cultivated at Nanjing KeyGEN BioTECH development Ltd.) are inoculated onto the cerebral cortex of a nude mouse by in-situ penetration through the cranium and its tympanic membrane slightly off the median line of the cerebrum. Magnetic resonance imaging is conducted after about 3-4 days. The nude mouse is anesthetized by respiratory anesthesia and an intravenous needle is detained in tail vein. The mouse is put into a 4.7T MRI system and stays in stationary state in the course of magnetic resonance scanning. The commercialized Gd-DTPA contrast agent (magnevist, produced by Bayer Corp.) is first injected through tail vein as reference (injection dosage: 0.1 mmol/kg) and is scanned continuously for 2 hours in the magnetic resonance chamber. After the Gd-DTPA is completely metabolized and excreted, human H-subunit magnetoferritin is injected through tail vein (injection dosage: 20 mg Fe/kg mouse weight) and is scanned continuously for 3 hours. […]
Purified human H-subunit ferritin is partially or totally denatured using denaturant such as guanidine hydrochloride (1-7 M) or urea (2-8 M) etc. such that the subunits are partially or totally depolymerized. […] Protein quantification is conducted using BCA protein quantification reagent kit. The number of Gd atoms encapsulated in a single protein molecule is measured using ICP-MS. […]

Another data set relates to NCI-H460 lung cancer. The experiment in a line: Treatment experiment on lung cancer in vivo.

Structures can show the parent of a compound that is named as a salt.

As for `O=C([O-])CN(CCN(CC(=O)[O-])CC(=O)O)CCN(CC(=O)[O-])CC(=O)O.[Gd+3]` [Gd-DTPA], in data set [1], the “longitudinal relaxivity r1” value was “about 5.9 mM^−1S^−1”. In addition, in the data set with U87MG human glioma, the “T1-weighted MRI signal intensity of the glioma area after injection” value was “no evident change”.

With `COc1cccc2c1C(=O)c1c(O)c3c(c(O)c1C2=O)C[C@@](O)(C(=O)CO)C[C@@H]3O[C@H]1C[C@H](N)[C@H](O)[C@H](C)O1` [doxorubicin hydrochloride], the “tumor volume difference versus PBS control group” value in the data set with NCI-H460 lung cancer (8 days after administration, doxorubicin 3 mg/kg every 3 days) was “minute difference”. Besides, the “average tumor inhibition rate” value with NCI-H460 lung cancer (tumor weights, doxorubicin 3 mg/kg tail vein every 3 days, 15 days, 3 mice per group) came out at 23%.

The values are drawn from patent publication US20150093335A1, “CELL-TARGETED MAGNETIC NANO-MATERIAL AND BIOMEDICAL USES THEREOF” (Institute of Geology and Geophysics, Chinese Academy of …, priority 2012, published 2015).
